ChEMBL document CHEMBL1201862, “PubChem BioAssay data set” (2004)
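Interpolation was linear, between the two tested concentrations surrounding the appropriate level; five concentrations were tested over 48 hours in 96-well plates. The concentration for 50% growth inhibition is given as GI50.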 Activity calls are given as the source filed them. No stated cut-off is given here; in the data, active = GI50 up to about 1.1 µM and inactive = higher.

Legend:
Test in all cases: DTP human tumour cell line panel, 48 h
RPMI-8226 = tested on: RPMI-8226
UACC-257 = tested on: UACC-257
MDA-MB-231 = tested on: MDA-MB-231
HL-60 = tested on: HL-60
SW-620 = tested on: SW-620
SF-295 = tested on: SF-295
HOP-62 = tested on: HOP-62
MDA-MB-435 = tested on: MDA-MB-435
HOP-92 = tested on: HOP-92
OVCAR-5 = tested on: OVCAR-5
SK-OV-3 = tested on: SK-OV-3
T47D = tested on: T47D
NCI-H23 = tested on: NCI-H23
Malme-3M = tested on: Malme-3M
CAKI-1 = tested on: CAKI-1
DU-145 = tested on: DU-145
A498 = tested on: A498
OVCAR-8 = tested on: OVCAR-8
HCT-116 = tested on: HCT-116
OVCAR-3 = tested on: OVCAR-3

Structure (SMILES) | GI50 (RPMI-8226) | GI50 (UACC-257) | GI50 (MDA-MB-231) | GI50 (HL-60) | GI50 (SW-620) | GI50 (SF-295) | GI50 (HOP-62) | GI50 (MDA-MB-435) | GI50 (HOP-92) | GI50 (OVCAR-5) | GI50 (SK-OV-3) | GI50 (T47D) | GI50 (NCI-H23) | GI50 (Malme-3M) | GI50 (CAKI-1) | GI50 (DU-145) | GI50 (A498) | GI50 (OVCAR-8) | GI50 (HCT-116) | GI50 (OVCAR-3)
COC(=O)/C=C1\C(=O)Nc2ccc(Br)cc21 | 1410 nM (inactive) | 1370 nM (inactive) | 2510 nM (inactive) | 1590 nM (inactive) | 1200 nM (inactive) | 2300 nM (inactive) | 2060 nM (inactive) | 1870 nM (inactive) | 1880 nM (inactive) | 1540 nM (inactive) | 3530 nM (inactive) | 2160 nM (inactive) | 1540 nM (inactive) | 2330 nM (inactive) | 1040 nM (active) | 1860 nM (inactive) | 5220 nM (inactive) | 2140 nM (inactive) | 1360 nM (inactive) | 1460 nM (inactive)
Cc1sc2nc(-c3ccc(Cl)c([N+](=O)[O-])c3)c(/C=N/NC(=N)N)n2c1C | 1350 nM (inactive) | 1290 nM (inactive) | 615 nM (active) | 1710 nM (inactive) | 247 nM (active) | 1760 nM (inactive) | 471 nM (active) | 1510 nM (inactive) | 1400 nM (inactive) | 1580 nM (inactive) | 1750 nM (inactive) | 1460 nM (inactive) | 1730 nM (inactive) | 2000 nM (inactive) | 1620 nM (inactive) | 1930 nM (inactive) | 1660 nM (inactive) | 824 nM (active) | – | 1690 nM (inactive)
COc1oc(C2C/C(=C/C(C)=C/C(C)=C/C(C)=C/c3ccc([N+](=O)[O-])cc3)CO2)c(C)c(=O)c1C (centres undefined) | 550 nM (active) | 5320 nM (inactive) | 15800 nM (inactive) | 1680 nM (inactive) | 9100 nM (inactive) | 2470 nM (inactive) | 19900 nM (inactive) | 3010 nM (inactive) | 6950 nM (inactive) | 47400 nM (inactive) | 12900 nM (inactive) | 1040 nM (active) | 1790 nM (inactive) | 3610 nM (inactive) | 12500 nM (inactive) | 8200 nM (inactive) | 6890 nM (inactive) | 1520 nM (inactive) | < 10 nM (active) | 11100 nM (inactive)
CC(C)[C@@H]1CC[C@@H](C)C[C@H]1OC(=O)/C=C1\C(C(=O)O[C@@H]2C[C@H](C)CC[C@H]2C(C)C)[C@H]2C=C[C@@H]1O2 (some centres undefined) | 56100 nM (inactive) | 35000 nM (inactive) | 87500 nM (inactive) | 22900 nM (inactive) | 29900 nM (inactive) | 25200 nM (inactive) | > 100000 nM (inactive) | 59000 nM (inactive) | 63000 nM (inactive) | > 100000 nM (inactive) | > 100000 nM (inactive) | 75200 nM (inactive) | 36700 nM (inactive) | > 100000 nM (inactive) | > 100000 nM (inactive) | 57900 nM (inactive) | > 100000 nM (inactive) | 57700 nM (inactive) | 49900 nM (inactive) | 38300 nM (inactive)
